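Results reflect a 48-hour exposure of cells in 96-well plates to compound at five concentrations. GI50 is the concentration that inhibits growth by half. Definition used: TGI = concentration required for complete inhibition of growth.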
Assays:
Assay in all cases: NCI-60 cell line screen, 48 h
A498 renal = system: A498 renal
ACHN renal = system: ACHN renal
DU-145 prostate = system: DU-145 prostate
LOX IMVI melanoma = system: LOX IMVI melanoma
NCI-H522 lung = system: NCI-H522 lung
OVCAR-4 ovarian = system: OVCAR-4 ovarian
SK-MEL-2 melanoma = system: SK-MEL-2 melanoma
SK-MEL-28 melanoma = system: SK-MEL-28 melanoma
SN12C renal = system: SN12C renal
SK-OV-3 ovarian = system: SK-OV-3 ovarian

Structure (SMILES)	GI50 (A498 renal) [µM]	TGI (A498 renal) [µM]	GI50 (ACHN renal) [µM]	TGI (ACHN renal) [µM]	TGI (DU-145 prostate) [µM]	GI50 (LOX IMVI melanoma) [µM]	TGI (LOX IMVI melanoma) [µM]	GI50 (NCI-H522 lung) [µM]	TGI (NCI-H522 lung) [µM]	GI50 (OVCAR-4 ovarian) [µM]	TGI (OVCAR-4 ovarian) [µM]	GI50 (SK-MEL-2 melanoma) [µM]	TGI (SK-MEL-2 melanoma) [µM]	GI50 (SK-MEL-28 melanoma) [µM]	TGI (SK-MEL-28 melanoma) [µM]	GI50 (SN12C renal) [µM]	TGI (SN12C renal) [µM]	GI50 (DU-145 prostate) [µM]	GI50 (SK-OV-3 ovarian) [µM]	TGI (SK-OV-3 ovarian) [µM]
CCOC(=O)C1=C(C)N(N)C(=S)NC1c1ccc(C)cc1 (stereo unspecified)	11.2	> 100	22.6	> 100	12.3	9.19	> 100	18.2	> 100	66	> 100	21.4	> 100	6.99	> 100	> 100	> 100			
CCOC(=O)N1CCN(C(=O)c2ccc(C(F)(F)F)nc2Nc2cc(Cl)ccc2C)CC1	21.1	56.4	13.9	89.4	> 100	19.7	> 100	4.43	27.4	11.8	55.1	22.3	72.9	26.1	96	36.8	> 100	48.2	> 100	> 100
Cc1ccc(Nc2nc(N)c(C(=O)c3ccc(C#N)cc3)s2)cc1	0.37	23.1	0.587	> 80.5	> 100	0.522	> 100	0.221		3.86	> 68.4	0.435	46.1	18.9	> 100	0.617	> 100	0.675	0.449	46
O=C(N/N=C\c1cc(Br)ccc1O)c1ccncc1	5.82	77.3	2.37	> 100	> 100	1.07	94.7	2.17	19.8	0.814	33.3	4.29	> 100	3.52	> 100	4.63	> 100	2.53	4.79	> 100
COc1cc(NC(C)CCCN)c2nccc(C)c2c1OC (stereo unspecified)	14.4	30	20.7	50.1	28.6	14.7	28.7	5.28	19.6	2.7	10.2	18.8	49.8	14.6	29.6	11.4	25.8	15.3	18.6	57.1
CCN(CC)CCNCC(=O)Oc1ccc(/C=C/C(=O)CC(=O)/C=C/c2ccc(OC(=O)CNCCN(CC)CC)c(OC)c2)cc1OC	3.34	11.6	5.28	20.8	9.56	2.13	4.71	3.29	11.6	8.67	> 100	3.39	12.7	4.16	46.2	3.32	79.6	2.74	3.71	12.6
COc1cc(/C=C2\C(=O)Nc3ccc(F)cc32)cc(OC)c1OC	54	> 100	50	> 100	> 100	20.5	> 100	22.8	> 100	60	> 100	96.4	> 100	56.7	> 100	51.8	> 100	18.4	> 100	> 100
COc1ccc(-c2cc(-c3cccn3C)c(C#N)c(N)n2)cc1OC	82.8	> 100	> 100	> 100	> 100	> 100	> 100	40.4	> 100	40.7	> 100	> 100	> 100	> 100	> 100	66.9	> 100	91.6	> 100	> 100
N#CC1(C2SCCS2=O)C2=C(C(=O)c3ccccc3C2=O)N2CCCC21 (stereo unspecified)		13		16.2	4.93		6.53		5.78		4.09		4.12		7.8		6.71			51.7
Nc1nc(Cl)cc(NCCO)n1		> 100		> 100	> 100		> 100		> 100		> 100		> 100		> 100		> 100			> 100
Cc1[nH]n(-c2cccc(Cl)c2)c(=O)c1/C=C1\C=Nc2ccc(Br)cc21	2.08	5.18	2.46	5.9	> 100	5.48	38	3.67	17.5	1.59	2.95	10.5	24.6	19.6	> 100	2.88	11.9	5.71	2.22	4.53
COc1ccc(C2C(C#N)=C(N)OC3=C2COc2ccc(F)cc23)cc1OC (stereo unspecified)	28.3	59.1	12.3	37.2	> 100	11.3	24.1	54.3	> 100	24.9	> 100	68.7	> 100	51.8	> 100	20.8	89.4	28.2	37.3	> 100
O=C(O)c1cccc(OCCO)c1		> 100		> 100	> 100		> 100		> 100		> 100		> 100		> 100		> 100			> 100
O=C(O)c1c(-c2nccc3ccccc23)[nH]c(-c2ccccc2)c1S(=O)(=O)O		> 100		> 100	> 100		> 100		> 100		> 100		> 100		> 100		> 100			> 100

— PubChem BioAssay (NCI)
